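Interpolation was linear, between the two tested concentrations surrounding the appropriate level; five concentrations were tested over 48 hours in 96-well plates. TGI: concentration producing complete growth inhibition.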
Tests used:
Assay in all cases: growth of human tumour cells (NCI), 48 h
SN12C renal = system: SN12C renal
SR leukemia = system: SR leukemia
OVCAR-4 ovarian = system: OVCAR-4 ovarian
RPMI-8226 leukemia = system: RPMI-8226 leukemia
EKVX NSCLC = system: EKVX NSCLC
KM12 colon = system: KM12 colon
LOX IMVI melanoma = system: LOX IMVI melanoma
MALME-3M melanoma = system: MALME-3M melanoma
SF-268 CNS = system: SF-268 CNS
M14 melanoma = system: M14 melanoma
SK-OV-3 ovarian = system: SK-OV-3 ovarian
CAKI-1 renal = system: CAKI-1 renal
COLO 205 colon = system: COLO 205 colon
XF 498 CNS = system: XF 498 CNS
ACHN renal = system: ACHN renal
HOP-62 NSCLC = system: HOP-62 NSCLC
HCT-116 colon = system: HCT-116 colon
OVCAR-3 ovarian = system: OVCAR-3 ovarian
IGROV1 ovarian = system: IGROV1 ovarian
HOP-92 NSCLC = system: HOP-92 NSCLC
NCI-H522 lung = system: NCI-H522 lung
SK-MEL-2 melanoma = system: SK-MEL-2 melanoma
HCC-2998 colon = system: HCC-2998 colon
CCRF-CEM leukemia = system: CCRF-CEM leukemia
HL-60(TB) leukemia = system: HL-60(TB) leukemia
SNB-75 CNS = system: SNB-75 CNS
HCT-15 colon = system: HCT-15 colon
MOLT-4 leukemia = system: MOLT-4 leukemia
SW-620 colon = system: SW-620 colon
M19-MEL melanoma = system: M19-MEL melanoma
LXFL 529 NSCLC = system: LXFL 529 NSCLC
DMS 273 small cell lung = system: DMS 273 small cell lung
K-562 leukemia = system: K-562 leukemia
RXF 393 renal = system: RXF 393 renal
OVCAR-5 ovarian = system: OVCAR-5 ovarian
SNB-19 CNS = system: SNB-19 CNS
UO-31 renal = system: UO-31 renal
NCI/ADR-RES ovarian = system: NCI/ADR-RES ovarian
TK-10 renal = system: TK-10 renal
MDA-N = system: MDA-N
SK-MEL-5 melanoma = system: SK-MEL-5 melanoma
NCI-H460 lung = system: NCI-H460 lung
HS 578T breast = system: HS 578T breast
A549 NSCLC = system: A549 NSCLC
MDA-MB-231 breast = system: MDA-MB-231 breast
UACC-62 melanoma = system: UACC-62 melanoma
MDA-MB-435 = system: MDA-MB-435
A498 renal = system: A498 renal
PC-3 prostate = system: PC-3 prostate
U251 CNS = system: U251 CNS
SF-295 CNS = system: SF-295 CNS
UACC-257 melanoma = system: UACC-257 melanoma
HT29 colon = system: HT29 colon
SK-MEL-28 melanoma = system: SK-MEL-28 melanoma
NCI-H226 lung = system: NCI-H226 lung
786-0 renal = system: 786-0 renal
OVCAR-8 ovarian = system: OVCAR-8 ovarian
MCF7 breast = system: MCF7 breast
DU-145 prostate = system: DU-145 prostate
T-47D breast = system: T-47D breast
BT-549 breast = system: BT-549 breast
NCI-H23 lung = system: NCI-H23 lung
SF-539 CNS = system: SF-539 CNS
SNB-78 CNS = system: SNB-78 CNS
DMS 114 small cell lung = system: DMS 114 small cell lung
HOP-18 NSCLC = system: HOP-18 NSCLC
KM20L2 colon = system: KM20L2 colon

O=c1n(CCCCn2c(=O)n(CC3CS3)c3ccccc32)c2ccccc2n1CC1CS1 (stereo not given)
TGI (SN12C renal): 36.5 µM
TGI (SR leukemia): 21.5 µM
TGI (OVCAR-4 ovarian): 34 µM
TGI (RPMI-8226 leukemia): 30.3 µM
TGI (EKVX NSCLC): 76.2 µM
TGI (KM12 colon): 24.2 µM
TGI (LOX IMVI melanoma): 14.4 µM
TGI (MALME-3M melanoma): 22.8 µM
TGI (SF-268 CNS): > 100 µM
TGI (M14 melanoma): 23.2 µM
TGI (SK-OV-3 ovarian): > 100 µM
TGI (CAKI-1 renal): 35.5 µM
TGI (COLO 205 colon): 35.6 µM
TGI (XF 498 CNS): 20.6 µM
TGI (ACHN renal): 77.6 µM
TGI (HOP-62 NSCLC): 43.9 µM
TGI (HCT-116 colon): 39.7 µM
TGI (OVCAR-3 ovarian): 29.4 µM
TGI (IGROV1 ovarian): 32 µM
TGI (HOP-92 NSCLC): 86.5 µM
TGI (NCI-H522 lung): 31.6 µM
TGI (SK-MEL-2 melanoma): 29 µM
TGI (HCC-2998 colon): 35.9 µM
TGI (CCRF-CEM leukemia): 81.4 µM
TGI (HL-60(TB) leukemia): 6.34 µM
TGI (SNB-75 CNS): 61.4 µM
TGI (HCT-15 colon): 33.2 µM
TGI (MOLT-4 leukemia): 5.82 µM
TGI (SW-620 colon): 39.8 µM
TGI (M19-MEL melanoma): 45.8 µM
TGI (LXFL 529 NSCLC): 33.1 µM
TGI (DMS 273 small cell lung): 42.7 µM
TGI (K-562 leukemia): 37.5 µM

Cc1ccc(CCCCCOc2ccc(C3=NCCO3)cc2)s1
TGI (SN12C renal): > 100 µM
TGI (SR leukemia): > 100 µM
TGI (OVCAR-4 ovarian): > 100 µM
TGI (RXF 393 renal): > 100 µM
TGI (OVCAR-5 ovarian): > 100 µM
TGI (SNB-19 CNS): > 100 µM
TGI (UO-31 renal): > 100 µM
TGI (RPMI-8226 leukemia): > 100 µM
TGI (EKVX NSCLC): > 100 µM
TGI (KM12 colon): > 100 µM
TGI (NCI/ADR-RES ovarian): > 100 µM
TGI (TK-10 renal): > 100 µM
TGI (MDA-N): 62.6 µM
TGI (MALME-3M melanoma): > 100 µM
TGI (SK-MEL-5 melanoma): > 100 µM
TGI (NCI-H460 lung): > 100 µM
TGI (SF-268 CNS): > 100 µM
TGI (M14 melanoma): > 100 µM
TGI (SK-OV-3 ovarian): > 100 µM
TGI (HS 578T breast): > 100 µM
TGI (A549 NSCLC): > 100 µM
TGI (CAKI-1 renal): > 100 µM
TGI (COLO 205 colon): > 100 µM
TGI (MDA-MB-231 breast): > 100 µM
TGI (UACC-62 melanoma): > 100 µM
TGI (MDA-MB-435): > 100 µM
TGI (ACHN renal): > 100 µM
TGI (A498 renal): 4.47 µM
TGI (HOP-62 NSCLC): > 100 µM
TGI (HCT-116 colon): > 100 µM
TGI (OVCAR-3 ovarian): > 100 µM
TGI (IGROV1 ovarian): > 100 µM
TGI (PC-3 prostate): > 100 µM
TGI (U251 CNS): > 100 µM
TGI (SF-295 CNS): > 100 µM
TGI (UACC-257 melanoma): > 100 µM
TGI (NCI-H522 lung): > 100 µM
TGI (HT29 colon): > 100 µM
TGI (SK-MEL-2 melanoma): > 100 µM
TGI (SK-MEL-28 melanoma): > 100 µM
TGI (HCC-2998 colon): > 100 µM
TGI (CCRF-CEM leukemia): > 100 µM
TGI (NCI-H226 lung): > 100 µM
TGI (786-0 renal): > 100 µM
TGI (OVCAR-8 ovarian): > 100 µM
TGI (MCF7 breast): > 100 µM
TGI (HL-60(TB) leukemia): > 100 µM
TGI (SNB-75 CNS): > 100 µM
TGI (DU-145 prostate): > 100 µM
TGI (HCT-15 colon): > 100 µM
TGI (MOLT-4 leukemia): > 100 µM
TGI (SW-620 colon): > 100 µM
TGI (T-47D breast): > 100 µM
TGI (BT-549 breast): > 100 µM
TGI (NCI-H23 lung): > 100 µM
TGI (K-562 leukemia): > 100 µM

CC(C)c1nc2c(Cl)c3ncccc3cc2[nH]c1=O
TGI (SN12C renal): > 100 µM
TGI (SR leukemia): > 100 µM
TGI (OVCAR-4 ovarian): > 100 µM
TGI (RXF 393 renal): > 100 µM
TGI (OVCAR-5 ovarian): > 100 µM
TGI (SNB-19 CNS): > 100 µM
TGI (UO-31 renal): > 100 µM
TGI (RPMI-8226 leukemia): > 100 µM
TGI (EKVX NSCLC): > 100 µM
TGI (KM12 colon): > 100 µM
TGI (NCI/ADR-RES ovarian): > 100 µM
TGI (MDA-N): > 100 µM
TGI (MALME-3M melanoma): > 100 µM
TGI (SK-MEL-5 melanoma): > 100 µM
TGI (NCI-H460 lung): > 100 µM
TGI (SF-268 CNS): > 100 µM
TGI (M14 melanoma): > 100 µM
TGI (SK-OV-3 ovarian): > 100 µM
TGI (HS 578T breast): > 100 µM
TGI (A549 NSCLC): > 100 µM
TGI (CAKI-1 renal): > 100 µM
TGI (COLO 205 colon): > 100 µM
TGI (MDA-MB-231 breast): > 100 µM
TGI (UACC-62 melanoma): > 100 µM
TGI (MDA-MB-435): > 100 µM
TGI (ACHN renal): > 100 µM
TGI (A498 renal): > 100 µM
TGI (HOP-62 NSCLC): > 100 µM
TGI (HCT-116 colon): > 100 µM
TGI (OVCAR-3 ovarian): > 100 µM
TGI (IGROV1 ovarian): > 100 µM
TGI (PC-3 prostate): > 100 µM
TGI (U251 CNS): > 100 µM
TGI (HOP-92 NSCLC): > 100 µM
TGI (SF-295 CNS): > 100 µM
TGI (UACC-257 melanoma): > 100 µM
TGI (NCI-H522 lung): > 100 µM
TGI (HT29 colon): > 100 µM
TGI (SK-MEL-2 melanoma): > 100 µM
TGI (SK-MEL-28 melanoma): > 100 µM
TGI (CCRF-CEM leukemia): > 100 µM
TGI (NCI-H226 lung): > 100 µM
TGI (786-0 renal): > 100 µM
TGI (OVCAR-8 ovarian): > 100 µM
TGI (MCF7 breast): > 100 µM
TGI (HL-60(TB) leukemia): > 100 µM
TGI (SNB-75 CNS): > 100 µM
TGI (DU-145 prostate): > 100 µM
TGI (HCT-15 colon): > 100 µM
TGI (MOLT-4 leukemia): > 100 µM
TGI (SW-620 colon): > 100 µM
TGI (SF-539 CNS): > 100 µM
TGI (T-47D breast): > 100 µM
TGI (BT-549 breast): > 100 µM
TGI (NCI-H23 lung): > 100 µM
TGI (K-562 leukemia): > 100 µM

COC(=O)C(CC(=O)Nc1ccc(Cl)c(Cl)c1)C(=O)C(=O)NC1C2CC3CC(C2)CC1C3 (stereo not given)
TGI (SN12C renal): > 100 µM
TGI (SR leukemia): > 100 µM
TGI (OVCAR-4 ovarian): > 100 µM
TGI (RXF 393 renal): > 100 µM
TGI (OVCAR-5 ovarian): > 100 µM
TGI (SNB-19 CNS): > 100 µM
TGI (UO-31 renal): > 100 µM
TGI (RPMI-8226 leukemia): > 100 µM
TGI (EKVX NSCLC): > 100 µM
TGI (KM12 colon): > 100 µM
TGI (SNB-78 CNS): > 100 µM
TGI (TK-10 renal): > 100 µM
TGI (LOX IMVI melanoma): > 100 µM
TGI (MALME-3M melanoma): > 100 µM
TGI (SK-MEL-5 melanoma): > 100 µM
TGI (NCI-H460 lung): > 100 µM
TGI (SF-268 CNS): > 100 µM
TGI (M14 melanoma): > 100 µM
TGI (SK-OV-3 ovarian): > 100 µM
TGI (A549 NSCLC): > 100 µM
TGI (CAKI-1 renal): > 100 µM
TGI (COLO 205 colon): > 100 µM
TGI (UACC-62 melanoma): > 100 µM
TGI (ACHN renal): > 100 µM
TGI (A498 renal): > 100 µM
TGI (HOP-62 NSCLC): > 100 µM
TGI (HCT-116 colon): > 100 µM
TGI (OVCAR-3 ovarian): > 100 µM
TGI (IGROV1 ovarian): > 100 µM
TGI (U251 CNS): > 100 µM
TGI (DMS 114 small cell lung): > 100 µM
TGI (HOP-92 NSCLC): > 100 µM
TGI (SF-295 CNS): > 100 µM
TGI (UACC-257 melanoma): > 100 µM
TGI (NCI-H522 lung): > 100 µM
TGI (HT29 colon): > 100 µM
TGI (SK-MEL-2 melanoma): > 100 µM
TGI (SK-MEL-28 melanoma): > 100 µM
TGI (HCC-2998 colon): > 100 µM
TGI (HOP-18 NSCLC): > 100 µM
TGI (CCRF-CEM leukemia): > 100 µM
TGI (NCI-H226 lung): > 100 µM
TGI (786-0 renal): > 100 µM
TGI (OVCAR-8 ovarian): > 100 µM
TGI (HL-60(TB) leukemia): > 100 µM
TGI (HCT-15 colon): > 100 µM
TGI (MOLT-4 leukemia): > 100 µM
TGI (SW-620 colon): > 100 µM
TGI (M19-MEL melanoma): > 100 µM
TGI (SF-539 CNS): > 100 µM
TGI (KM20L2 colon): > 100 µM
TGI (LXFL 529 NSCLC): > 100 µM
TGI (DMS 273 small cell lung): > 100 µM
TGI (NCI-H23 lung): > 100 µM
TGI (K-562 leukemia): > 100 µM
